The values that follow come from patent publication US12448388B2, “PRMT5 inhibitors and uses thereof” (Gilead Sciences, Inc., priority 2023, dated 2025).

Data set [1] in a line: Hepatocyte stability assay, dog. Type of data set: in vitro ADME. As to conditions: Beagle Dog. How it is done: (§1) BioreclamationIVT (Baltimore, MD) provided the cryopreserved hepatocytes, hepatocyte thawing (HT) medium, and Krebs-Henseleit buffer (KHB) medium. The stock solution concentration was 1 M in DMSO and was then diluted further in acetonitrile/water (1:1 v/v). All other chemicals were purchased from Sigma-Aldrich (St. Louis, MO) or Thermo Fisher Scientific (Waltham, MA).
(§2) The quench solution used to stop reactions in the hepatocyte incubations was comprised of 100% (v/v) acetonitrile. Internal Standard/Quench (IS/Q) solution used to stop reactions with the positive control also contained 200 nM Labetalol.
(§3) Metabolic Stability in Cryopreserved Hepatocytes: Test compounds, or the positive control metabolic substrate, was incubated in suspensions of cryopreserved hepatocytes at a final concentration of 1 μM. Vials containing cryopreserved hepatocytes were removed from liquid nitrogen and immediately immersed in a 37° C. water bath. The vials were swirled gently until the contents had thawed. They were then immediately emptied into 48 mL of pre-warmed thawing medium in a 50 mL conical tube. Cells remaining in the vial were re-suspended with 1.0 mL of pre-warmed thawing medium and added to the conical tube. The tube was capped and then gently inverted several times to re-suspend the hepatocytes. The cell suspension was centrifuged at 500×g for 10 minutes at room temperature and the supernatant discarded. The cell pellet was loosened by gently swirling the centrifuge tube. Non-supplemented KHB medium was added to obtain the appropriate target cell density. The viabilities of all cell preparations were ≥85%, assessed by Trypan blue dye exclusion.
(§4) For incubations, aliquots of hepatocyte suspension (250 μL containing a cell concentration of 2×10^6 cells/mL) were added to 250 μL of 2 μM substrate (test compound or positive control) in supplemented KHB in duplicate wells in a 24-well plate. Final concentration in the incubations were 1×10^6 cells/mL and 1 μM substrate. A cell-free control incubation (KHB only) was also included. The incubations were carried out with gentle shaking in a 37° C. incubator under a humid atmosphere of 95% air/5% CO2 (v/v). Aliquots (100 μL) were removed after 0, 1, 3, and 6 hours and added to 200 μL quenching solution. The samples were then placed on a shaker for 10 min followed by centrifugation at 3000×g for 20 min. The supernatant was transferred to a new plate and diluted with 100 μL of water to reduce the organic content and then placed on a shaker for 10 mins. Samples were injected and analyzed with methods described below.
(§5) Liquid Chromatography: Quantification of positive control and test compound was performed by analyte/internal standard peak area ratios (PAR) measured on a Thermo Scientific™ Q Exactive™ Hybrid Quadrupole-Orbitrap Mass Spectrometer MS/MS with an electrospray interface operating in positive ion mode. The mass spectrometer was coupled to a Dionex Ultimate® 3000 HPLC system. Samples (10 μL aliquots) were injected with a Leap Technologies HTC PAL autosampler. For positive control, the column used was a Thermo Scientific™ Hypersil GOLD™ HPLC column ([…], 50×2.1 mm). Mobile phase A consisted of 95% (v/v) water, 5% (v/v) acetonitrile, and contained 0.1% (v/v) formic acid (FA). Mobile phase B consisted of 95% (v/v) acetonitrile, 5% (v/v) water, and contained 0.1% (v/v) FA. Elution was achieved, at a flow rate of 0.5 mL/min, by a series of linear gradients: initial condition was 5% B at 0 min, isocratic for 20 seconds; then linear gradient to 95% B over 90 seconds, followed by isocratic for 60 seconds at 95% B, and re-equilibrated to initial conditions over 70 seconds.
(§6) Metabolic stabilities of positive control and test compound were determined by measuring the rates of disappearance of the parent with time by determining the % of parent remaining at time t (Ct) {Obach 1997}.
(§7) Data (% of parent remaining) were plotted on a semi-log scale and fitted using an exponential fit: […]

The nature of data set [2]: Hepatocyte stability assay, cynomolgus monkey. The format is in vitro ADME. How it is done: as §1, §2, §3, §4, §5, §6, §7
The nature of data set [3]: Pharmacokinetics in cassette in male cynomolgus monkeys for Kp measurement. Type of data set: in vivo. As to conditions: cynomolgus monkey, 0.5 mg/kg, intravenous. On the procedure:
F.1 Test Animal: Cynomolgus Monkeys from Labcorp 8298417 Maintained at Labcorp-Madison
F.2 Pharmaceutical Formulation and Administration
Test compound was dissolved in the vehicle of 10% DMSO, 10% ethanol, 40% polyethylene glycol 300, and 40% propylene glycol to get 0.5 mg/mL test compound solution. The compound was administered by intravenous administration at a dose of 1 mL/kg. The intravenous dose was administered as a bolus injection followed by an approximately 2-hour infusion via an indwelling catheter in a saphenous or cephalic vein. Fasting was not required.
• Collection time: • PK for Plasma: Predose, 0.25, 1, 1.5 and 2 hours postdose (based on start of infusion) • PK for Whole Blood: 1.5 hour postdose • Anticogulant: K2EDTA • Volume: • PK for Plasma: Approximately 0.5 mL • PK for Whole Blood: Approximately 0.1 mL • Collection Site: Femoral vein; saphenous or cephalic vein

Data set [4] deals with Calu-6 (lung, adenocarcinoma; MTAP-WT). The data set is described as follows: In vitro cell viability assay (CellTiter-Glo, 9 days), Calu-6. The format is cell-based. The conditions noted are these: Homo sapiens, Calu-6, 216 h, 9-day treatment. How it is done: Some Compounds of the Disclosure were tested in Calu-6 (Vendor: ATCC; Cat #HTB-56; Description: lung, adenocarcinoma), LU99 (Vendor: JCRB; Cat #JCRB0080; Description: lung, giant cell carcinoma), SW780 (Vendor: ATCC; Cat #CRL-2169; Description: bladder, urothelial carcinoma), and BxPC-3 (Vendor: ATCC; Cat #CRL-1687; Description: pancreas, adenocarcinoma) cellular viability assays according to the general protocol. Seeded cells into 96-well plate and incubated overnight. Seeded an additional 10 wells per cell line in an additional 96-well plate for assessing Time Zero luminescence and incubated overnight. To treatment plates, added compounds into each well using Tecan D300e dispenser (nine three-fold dilutions starting at […]) and incubated for 9 days. Time Zero (no compound treatment, luminescence assessed on day 1) and 9-day treatment (luminescence assessed on day 10) plates were assessed using the same CellTiter-Glo® substrate protocol. Thawed CellTiter-Glo® Buffer and lyophilized CellTiter-Glo® substrate and equilibrated to room temperature prior to use. Transferred 100 ml CellTiter-Glo® Buffer into amber bottle containing CellTiter-Glo® substrate to reconstitute the lyophilized enzyme/substrate mixture. For Time Zero and 9-day treatment plates, removed all plating media. Added 100 μl fresh media/well. Added 100 μl CellTiter-Glo® Reagent per well. Mixed contents for 10 min on an orbital shaker to lyse cells. Recorded luminescence with Perkin Elmer Envision 2105 machine. Analyzed the data with GraphPad software.
A general note: ATP-based viability assays read luminescence as a measure of living cells.

The nature of data set [5]: Hepatocyte stability assay, rat. The format is in vitro ADME. The conditions noted are these: Sprague-Dawley Rat. How it is done:
as §1, §2, §3, §4, §5, §6, §7

The mark [6] stands for this setting: brain Kp = [brain]/[plasma], cyno, read-out: Cyno brain Kp.
The mark [7] stands for this setting: brain Kpu,u = Kp * (plasma free/rat brain free), read-out: Cyno brain Kpu,u.

Several values for one entry are separate records, joined by “and”; a condition that tells them apart may be missing. Identical values can stand only once. Like-named read-outs stand apart in the source and are kept apart here.

In general, GI50 refers to the concentration at which growth is held to half of that of the control. For the molecule `C[C@H]1CN(C(=O)c2cc3c(cc2F)nc(N)c2cncn23)[C@H]2c3ccc(C(F)(F)F)cc3C[C@H]2O1` (single isomer, unassigned) [Ff-81], the “Predicted Hepatocyte CL” value in data set [1] was 3.5 mL/min/kg; in data set [2] it was 2.5 mL/min/kg; in data set [5], 18.3 mL/min/kg. In addition, the results for the Kp in data set [3] (setting [6]) and in data set [3] (setting [7]) were 0.96 and 0.13, respectively. In data set [4], the GI50 is above 10 µM.

For `C[C@@H]1CN(C(=O)c2cc3c(cc2F)nc(N)c2cncn23)[C@H]2c3ccc(OC(F)(F)F)cc3C[C@H]2O1` (single isomer, unassigned) [Ff-183], it took 2.15 µM to inhibit growth in data set [4] by half (GI50).

Regarding `C[C@@H]1CN(C(=O)c2cc3c(cc2F)nc(N)c2cncn23)[C@H]2c3cc(F)c(OC(F)(F)F)cc3C[C@H]2O1` (single isomer, unassigned) [Ff-197], the Kp came out at 1.2 in data set [3] (setting [6]) and 0.28 in data set [3] (setting [7]).

Consider `Nc1nc2cnc(C(=O)N3CCC[C@@H]4Oc5cc(C(F)(F)F)cc(F)c5[C@@H]43)cc2n2cncc12` (single isomer, unassigned) [Fg-53], for which the “Predicted Hepatocyte CL” value is 10.2 mL/min/kg in data set [1], 3 mL/min/kg in data set [2] and 18.7 mL/min/kg in data set [5]. The figures for the Kp in data set [3] (setting [6]) and in data set [3] (setting [7]) were 0.99 and 0.16, respectively. This molecule also came in with a GI50 in data set [4] of 1.26 µM.

For the molecule `Nc1nc2cnc(C(=O)N3CCC[C@@H]4Oc5cc(OC(F)(F)F)cc(F)c5[C@@H]43)cc2n2cncc12` (single isomer, unassigned) [Fg-55], the “Predicted Hepatocyte CL” value is 12.5 mL/min/kg in data set [1], 4.17 mL/min/kg in data set [2] and 15.5 mL/min/kg in data set [5]. The values for the Kp in data set [3] (setting [6]) and in data set [3] (setting [7]) were 0.95 and 0.12, respectively. The same molecule had a GI50 in data set [4] of 2.51 µM.

Consider `Nc1nc2cc(F)c(C(=O)N3CCC[C@@H]4Oc5cc(C(F)(F)F)ccc5[C@@H]43)cc2n2cncc12` [Ff-104, (4-amino-7-fluoroimidazo[1,5-a]quinoxalin-8-yl)((4aS,9bS)-7-(trifluoromethyl)-3,4,4a,9b-tetrahydrobenzofuro[3,2-b]pyridin-1(2H)-yl)methanone], for which the “Predicted Hepatocyte CL” value in data set [1] is 6.33 mL/min/kg and 11.2 mL/min/kg; in data set [2], 4.83 mL/min/kg and 4.67 mL/min/kg; in data set [5] it was 27.7 mL/min/kg and 20.7 mL/min/kg. Moreover, the values for the Kp in data set [3] (setting [6]) and in data set [3] (setting [7]) were 1.78 and 0.19, respectively. In addition, it took 2.15 µM to inhibit growth in data set [4] by half (GI50).

For the molecule `Nc1nc2cnc(C(=O)N3CCC[C@@H]4Oc5cc(C(F)(F)F)ccc5[C@@H]43)cc2n2cncc12` [Ff-110, (4-aminoimidazo[1,5-a]pyrido[3,4-e]pyrazin-8-yl)((4aS,9bS)-7-(trifluoromethyl)-3,4,4a,9b-tetrahydrobenzofuro[3,2-b]pyridin-1(2H)-yl)methanone], the results for the Kp in data set [3] (setting [6]) and in data set [3] (setting [7]) were 0.76 and 0.1, respectively. The molecule further yielded a GI50 in data set [4] of 1.55 µM.

For the molecule `Nc1nc2ccc(C(=O)N3CCC[C@@H]4Oc5cc(C(F)(F)F)ccc5[C@@H]43)cc2n2cncc12` [Ff-111, (4-aminoimidazo[1,5-a]quinoxalin-8-yl)((4aS,9bS)-7-(trifluoromethyl)-3,4,4a,9b-tetrahydrobenzofuro[3,2-b]pyridin-1(2H)-yl)methanone], the “Predicted Hepatocyte CL” value in data set [1] is 12.3 mL/min/kg; in data set [2], 4.67 mL/min/kg; in data set [5], 27.8 mL/min/kg. Also, the values for the Kp in data set [3] (setting [6]) and in data set [3] (setting [7]) were 1.1 and 0.23, respectively. In data set [4], this molecule displayed a 50% growth inhibitory concentration (GI50) above 6.4 µM.

Turning to `Cc1ncc2c(N)nc3cnc(C(=O)N4CCC[C@@H]5Oc6cc(OC(F)(F)F)ccc6[C@@H]54)cc3n12` [Ff-340, (4-amino-1-methylimidazo[1,5-a]pyrido[3,4-e]pyrazin-8-yl)((4aS,9bS)-7-(trifluoromethoxy)-3,4,4a,9b-tetrahydrobenzofuro[3,2-b]pyridin-1(2H)-yl)methanone], the “Predicted Hepatocyte CL” value in data set [1] was 12 mL/min/kg; in data set [2], 3.3 mL/min/kg; in data set [5], 19.8 mL/min/kg. Also, the Kp in data set [3] (setting [6]) was found to be 1.1; in data set [3] (setting [7]), 0.32. For the same molecule, the GI50 in data set [4] was 2.95 µM.

Consider `Nc1nc2cnc(C(=O)N3CCC[C@@H]4Oc5cc(OC(F)(F)F)ccc5[C@@H]43)cc2n2cncc12` [Ff-341, (4-aminoimidazo[1,5-a]pyrido[3,4-e]pyrazin-8-yl)((4aS,9bS)-7-(trifluoromethoxy)-3,4,4a,9b-tetrahydrobenzofuro[3,2-b]pyridin-1(2H)-yl)methanone], for which the “Predicted Hepatocyte CL” value in data set [1] was 12.3 mL/min/kg; in data set [2] it was 5.67 mL/min/kg; in data set [5], 16 mL/min/kg. The molecule further returned a 50% growth inhibitory concentration (GI50) in data set [4] of 2.44 µM.

For `Cc1ncn2c1c(N)nc1cnc(C(=O)N3CCC[C@@H]4Oc5cc(C(F)(F)F)ccc5[C@@H]43)cc12` [Ff-499, (4-amino-3-methylimidazo[1,5-a]pyrido[3,4-e]pyrazin-8-yl)((4aS,9bS)-7-(trifluoromethyl)-3,4,4a,9b-tetrahydrobenzofuro[3,2-b]pyridin-1(2H)-yl)methanone], the results for the “Predicted Hepatocyte CL” value in data set [1], in data set [2] and in data set [5] were 15.3 mL/min/kg, 15.3 mL/min/kg and 37.2 mL/min/kg, respectively. In addition, the figures for the Kp in data set [3] (setting [6]) and in data set [3] (setting [7]) were 2.4 and 0.51, respectively.

In the case of `Nc1nc2cnc(C(=O)N3CC4(CC4)C[C@@H]4Oc5cc(C(F)(F)F)ccc5[C@@H]43)cc2n2cncc12` [Ff-648, (4-aminoimidazo[1,5-a]pyrido[3,4-e]pyrazin-8-yl)((4aS,9bS)-7-(trifluoromethyl)-4a,9b-dihydro-2H-spiro[benzofuro[3,2-b]pyridine-3,1′-cyclopropan]-1(4H)-yl)methanone], halving of growth in data set [4] (GI50) required 1.66 µM.
